Assay results reported in US20250127790A1, “COMBINATION THERAPY USING VPS34 INHIBITORS” (Deciphera Pharmaceuticals, LLC, priority 2021, published 2025).

Experiments:
[1] = tested on: A-498 renal cell carcinoma cells; assay: qRT-PCR, combination with STING agonist ADU-S100, A-498 cells; assay type: cell-based, Human; settings: 2 μM Compound 1 or 2, 50 μM ADU-S100, 24 h
Method: A-498 cells were grown in Minimal Essential Medium containing 10% fetal bovine serum. Cells were then incubated for 2 days at 37 degrees Celsius, 5% CO2, and 95% humidity. A-498 cells were treated with DMSO control, 2 μM Compound 1 or 2 μM Compound 2 in combination with 50 μM STING agonist ADU-S100 for 24 h. Cells were washed with PBS and RNA was isolated using the PureLink RNA kit (#12183018A, Thermo Fisher Scientific) according to the manufacturer's protocol. Genomic DNA was removed using DNA-binding columns (RNeasy plus kit, #74134, Qiagen) and/or DNase treatment (#12185010, Thermo Fisher Scientific). RNA was quantified using NanoDrop (Thermo Fisher Scientific) and 50 ng/μL RNA was used for cDNA synthesis with SuperScript IV VILO Master Mix (#11756050, Thermo Fisher Scientific). Quantitative RT-PCR (qRT-PCR) was run with diluted cDNA (1:25 or 1:12.5), PowerUp SYBR Green Master Mix (#A25741, Thermo Fisher Scientific), and 200 nM primers (see below) on a CFX Connect RT-PCR system (BioRad). Data was analyzed using the ΔΔCT method. Results are mean±SEM of three independent experiments.

[2] = tested on: 786-O renal cell carcinoma cells; assay: qRT-PCR, combination with STING agonist ADU-S100, 786-O cells; assay type: cell-based, Human; settings: 2 μM Compound 1 or 2, 50 μM ADU-S100, 24 h
Method: 786-O cells were grown in RPMI-1640 medium containing 10% fetal bovine serum. Cells were then incubated for 2 days at 37 degrees Celsius, 5% CO2, and 95% humidity. […] cells were treated with DMSO control, 2 μM Compound 1 or 2 μM Compound 2 in combination with 50 μM STING agonist ADU-S100 for 24 h. Cells were washed with PBS and RNA was isolated using the PureLink RNA kit (#12183018A, Thermo Fisher Scientific) according to the manufacturer's protocol. Genomic DNA was removed using DNA-binding columns (RNeasy plus kit, #74134, Qiagen) and/or DNase treatment (#12185010, Thermo Fisher Scientific). RNA was quantified using NanoDrop (Thermo Fisher Scientific) and 50 ng/μL RNA was used for cDNA synthesis with SuperScript IV VILO Master Mix (#11756050, Thermo Fisher Scientific). Quantitative RT-PCR (qRT-PCR) was run with diluted cDNA (1:25 or 1:12.5), PowerUp SYBR Green Master Mix (#A25741, Thermo Fisher Scientific), and 200 nM primers (see below) on a CFX Connect RT-PCR system (BioRad). Data was analyzed using the ΔΔCT method. Results are mean±SEM of three independent experiments.

[3] = tested on: A-498 renal cell carcinoma cells; assay: Cytokine secretion assay, combination with ADU-S100, A-498 cells; assay type: cell-based, human; settings: 2 μM Compound 1 or 2, 50 μM ADU-S100, 24 h
Method: (§1) A-498 cells were treated with DMSO control, 2 μM Compound 1 or 2 μM Compound 2 in combination with 50 μM STING agonist ADU-S100 for 24 h. Cell culture medium was centrifuged at 1600 rpm for 10 min at 4° C. and obtained supernatant stored at −80° C. Cytokine levels were quantified using following Meso Scale Discovery (MSD) assays: human R-PLEX RANTES/CCL5 (#F21ZN), U-PLEX CXCL10/IP-10 (#K151UFK). Assays were run on the SECTOR Quickplex Imager and analyzed using Discovery Workbench version 4.0 (MSD). Low concentrations of human IFNβ were determined using High Sensitivity IFN Beta ELISA Kit, (PBL assay science, #41415-1).

[4] = tested on: 786-O renal cell carcinoma cells; assay: Cytokine secretion assay, combination with ADU-S100, 786-O cells; assay type: cell-based, human; settings: 2 μM Compound 1 or 2, 50 μM ADU-S100, 24 h
Method: as §1, with “786-O” for “A-498”

B16-F10 melanoma cells = assay: qRT-PCR, combination with ADU-S100, B16-F10 cells; assay type: cell-based, Murine; settings: for IFNB1 mRNA expression: 2 μM Compound 1 or 2, 10 μM ADU-S100, 4 h; for CCL5 mRNA expression / CXCL10 mRNA expression: 2 μM Compound 1 or 2, 10 μM ADU-S100, 24 h
Method: B16-F10 cells were grown in DMEM/F12 medium containing 10% fetal bovine serum. Cells were then incubated for 2 days at 37 degrees Celsius, 5% CO2, and 95% humidity. […] cells were reversely transfected with scrambled siRNA control (siSCR) or siRNA targeting STING (siSTING). […] Cells were washed with PBS and RNA was isolated using the PureLink RNA kit (#12183018A, Thermo Fisher Scientific) according to the manufacturer's protocol. Genomic DNA was removed using DNA-binding columns (RNeasy plus kit, #74134, Qiagen) and/or DNase treatment (#12185010, Thermo Fisher Scientific). RNA was quantified using NanoDrop (Thermo Fisher Scientific) and 50 ng/μL RNA was used for cDNA synthesis with SuperScript IV VILO Master Mix (#11756050, Thermo Fisher Scientific). Quantitative RT-PCR (qRT-PCR) was run with diluted cDNA (1:25 or 1:12.5), PowerUp SYBR Green Master Mix (#A25741, Thermo Fisher Scientific), and 200 nM primers (see below) on a CFX Connect RT-PCR system (BioRad). Data was analyzed using the ΔΔCT method. Results are mean±SEM of three independent experiments.

Row | Compound | CCL5 mRNA expression [1] | CXCL10 mRNA expression [1] | IFNB1 mRNA expression [1] | CCL5 mRNA expression [2] | CXCL10 mRNA expression [2] | IFNB1 mRNA expression [2] | CCL5 secretion [3] | CXCL10 secretion [3] | IFNβ secretion [3] | CCL5 secretion [4] | CXCL10 secretion [4] | IFNβ secretion [4] | IFNB1 mRNA expression (B16-F10 melanoma cells) | CCL5 mRNA expression (B16-F10 melanoma cells) | CXCL10 mRNA expression (B16-F10 melanoma cells)
1 | Nc1ncnc2c1ncn2[C@@H]1O[C@@H]2COP(=O)([S-])O[C@@H]3[C@H](O)[C@@H](COP([O-])(=S)O[C@H]2[C@H]1O)O[C@H]3n1cnc2c(N)ncnc21.[Na+].[Na+] (stereo partly drawn) [ADU-S100, reference compound] | increased | increased | no effect | increased | no effect | no effect | mildly increased | mildly increased | no effect | significantly increased | significantly increased | mild effect | did not increase | did increase | did increase
2 | C[C@@H]1COCCN1c1cc(N2CCCC[C@@H]2C(F)(F)F)[nH]c(=O)c1 [Compound 1, 4-((R)-3-methylmorpholino)-6-((R)-2-(trifluoromethyl)piperidin-1-yl)pyridin-2(1H)-one] | mildly increased | mildly increased | mildly increased | increased | increased | increased | increased | increased | increased | increased | increased | increased | did not increase | mildly increase | mildly increase
3 | C[C@@H]1COCCN1c1cc(=O)n2c(n1)N(Cc1cncc(Cl)c1)[C@H](C(F)(F)F)CC2 [Compound 2, (S)-9-((5-chloropyridin-3-yl)methyl)-2-((R)-3-methylmorpholino)-8-(trifluoromethyl)-6,7,8,9-tetrahydro-4H-pyrimido[1,2-a]pyrimidin-4-one] | mildly increased | mildly increased | mildly increased | increased | increased | increased | increased | increased | increased | increased | increased | increased | did not increase | mildly increase | mildly increase
